In the NIST ThermoML archive (doi:10.1016/j.jct.2011.08.016):

Test: xn = mol fraction of the nth substance listed
Conditions: Liquid, Vibrating tube method

CCCCCCCCCC [decane] + CCCCCCCC
Conditions | mass density [kg/m3]
343.12 K, 23000 kPa, x2 = 0.7736 | 693.03
343.12 K, 24000 kPa, x2 = 0.2801 | 707.17
343.12 K, 24000 kPa, x2 = 0.5314 | 700.89
343.12 K, 24000 kPa, x2 = 0.7736 | 693.84
343.12 K, 25000 kPa, x2 = 0.2801 | 707.92
343.12 K, 25000 kPa, x2 = 0.5314 | 701.69
343.12 K, 25000 kPa, x2 = 0.7736 | 694.61
343.13 K, 1000 kPa, x2 = 0.9623 | 664.48
343.13 K, 2000 kPa, x2 = 0.9623 | 665.59
343.13 K, 3000 kPa, x2 = 0.9623 | 666.77
343.13 K, 4000 kPa, x2 = 0.9623 | 667.86
343.13 K, 5000 kPa, x2 = 0.9623 | 668.95
343.13 K, 6000 kPa, x2 = 0.9623 | 670.06
343.13 K, 7000 kPa, x2 = 0.9623 | 671.17
343.13 K, 8000 kPa, x2 = 0.9623 | 672.27
343.13 K, 9000 kPa, x2 = 0.9623 | 673.35
343.13 K, 10000 kPa, x2 = 0.9623 | 674.41
343.13 K, 10990 kPa, x2 = 0.9623 | 675.48
343.13 K, 12000 kPa, x2 = 0.9623 | 676.54
343.13 K, 13000 kPa, x2 = 0.9623 | 677.56
343.13 K, 14000 kPa, x2 = 0.9623 | 678.58
343.13 K, 15000 kPa, x2 = 0.9623 | 679.6
343.13 K, 16000 kPa, x2 = 0.9623 | 680.56
343.13 K, 17000 kPa, x2 = 0.9623 | 681.54
343.13 K, 18000 kPa, x2 = 0.9623 | 682.46
343.13 K, 19000 kPa, x2 = 0.9623 | 683.41
343.13 K, 20000 kPa, x2 = 0.9623 | 684.31
343.13 K, 21000 kPa, x2 = 0.9623 | 685.19
343.13 K, 22000 kPa, x2 = 0.9623 | 686.05
343.13 K, 23000 kPa, x2 = 0.9623 | 686.9
343.13 K, 24000 kPa, x2 = 0.9623 | 687.72
343.13 K, 25000 kPa, x2 = 0.9623 | 688.5
353.08 K, 1000 kPa, x2 = 0.9623 | 656.17
353.08 K, 2000 kPa, x2 = 0.9623 | 657.39
353.08 K, 3000 kPa, x2 = 0.9623 | 658.62
353.08 K, 4000 kPa, x2 = 0.9623 | 659.85
353.08 K, 5000 kPa, x2 = 0.9623 | 660.99
353.08 K, 6000 kPa, x2 = 0.9623 | 662.16
353.08 K, 7000 kPa, x2 = 0.9623 | 663.38
353.08 K, 8000 kPa, x2 = 0.9623 | 664.55
353.08 K, 9000 kPa, x2 = 0.9623 | 665.71
353.08 K, 10000 kPa, x2 = 0.9623 | 666.85
353.08 K, 10990 kPa, x2 = 0.9623 | 667.94
353.08 K, 12000 kPa, x2 = 0.9623 | 669.1
353.08 K, 13000 kPa, x2 = 0.9623 | 670.16
353.08 K, 14000 kPa, x2 = 0.9623 | 671.22
353.08 K, 15000 kPa, x2 = 0.9623 | 672.32
353.08 K, 16000 kPa, x2 = 0.9623 | 673.37
353.08 K, 17000 kPa, x2 = 0.9623 | 674.4
353.08 K, 18000 kPa, x2 = 0.9623 | 675.38
353.08 K, 19000 kPa, x2 = 0.9623 | 676.37
353.08 K, 20000 kPa, x2 = 0.9623 | 677.3
353.08 K, 21000 kPa, x2 = 0.9623 | 678.26
353.08 K, 22000 kPa, x2 = 0.9623 | 679.19
353.08 K, 23000 kPa, x2 = 0.9623 | 680.04
353.08 K, 24000 kPa, x2 = 0.9623 | 680.91
353.08 K, 25000 kPa, x2 = 0.9623 | 681.75
353.12 K, 1000 kPa, x2 = 0.0616 | 683.44
353.12 K, 1000 kPa, x2 = 0.2801 | 678.06
353.12 K, 1000 kPa, x2 = 0.5314 | 670.91
353.12 K, 1000 kPa, x2 = 0.7736 | 663
353.12 K, 2000 kPa, x2 = 0.0616 | 684.54
353.12 K, 2000 kPa, x2 = 0.2801 | 679.14
353.12 K, 2000 kPa, x2 = 0.5314 | 672.1
353.12 K, 2000 kPa, x2 = 0.7736 | 664.25
353.12 K, 3000 kPa, x2 = 0.0616 | 685.62
353.12 K, 3000 kPa, x2 = 0.2801 | 680.24
353.12 K, 3000 kPa, x2 = 0.5314 | 673.23
353.12 K, 3000 kPa, x2 = 0.7736 | 665.41
353.12 K, 4000 kPa, x2 = 0.0616 | 686.69
353.12 K, 4000 kPa, x2 = 0.2801 | 681.31
353.12 K, 4000 kPa, x2 = 0.5314 | 674.37
353.12 K, 4000 kPa, x2 = 0.7736 | 666.6
353.12 K, 5000 kPa, x2 = 0.0616 | 687.76
353.12 K, 5000 kPa, x2 = 0.2801 | 682.4
353.12 K, 5000 kPa, x2 = 0.5314 | 675.52
353.12 K, 5000 kPa, x2 = 0.7736 | 667.77
353.12 K, 6000 kPa, x2 = 0.0616 | 688.82
353.12 K, 6000 kPa, x2 = 0.2801 | 683.48
353.12 K, 6000 kPa, x2 = 0.5314 | 676.65
353.12 K, 6000 kPa, x2 = 0.7736 | 668.95
353.12 K, 7000 kPa, x2 = 0.0616 | 689.85
353.12 K, 7000 kPa, x2 = 0.2801 | 684.52
353.12 K, 7000 kPa, x2 = 0.5314 | 677.77
353.12 K, 7000 kPa, x2 = 0.7736 | 670.08
353.12 K, 8000 kPa, x2 = 0.0616 | 690.88
353.12 K, 8000 kPa, x2 = 0.2801 | 685.57
353.12 K, 8000 kPa, x2 = 0.5314 | 678.86
353.12 K, 8000 kPa, x2 = 0.7736 | 671.21
353.12 K, 9000 kPa, x2 = 0.0616 | 691.9
353.12 K, 9000 kPa, x2 = 0.2801 | 686.58
353.12 K, 9000 kPa, x2 = 0.5314 | 679.93
353.12 K, 9000 kPa, x2 = 0.7736 | 672.31
353.12 K, 10000 kPa, x2 = 0.0616 | 692.88
